According to patent US10159726B2, “Peptides, combination of peptides and scaffolds for use in immunotherapeutic treatment of various cancers” (Immatics Biotechnologies GmbH, priority 2015, dated 2018):

Assays:
[1] = tested on: CD8+ T cells of healthy HLA-A*24+ donor; experiment: In vitro T-cell priming (immunogenicity) with aAPCs loaded with HLA-A*24 peptide/MHC and anti-CD28, multimer readout; assay type: cell-based, human; settings: HLA-A*24 peptides; in vitro priming, multimer readout
Protocol: In order to obtain information regarding the immunogenicity of the TUMAPs of the present invention, the inventors performed investigations using an in vitro T-cell priming assay based on repeated stimulations of CD8+ T cells with artificial antigen presenting cells (aAPCs) loaded with peptide/MHC complexes and anti-CD28 antibody.
PBMCs and isolated CD8+ lymphocytes were incubated in T-cell medium (TCM) until use consisting of RPMI-Glutamax (Invitrogen, Karlsruhe, Germany) supplemented with 10% heat inactivated human AB serum (PAN-Biotech, Aidenbach, Germany), 100 U/ml Penicillin/100 μg/ml Streptomycin (Cambrex, Cologne, Germany), 1 mM sodium pyruvate (CC Pro, Oberdorla, Germany), 20 μg/ml Gentamycin (Cambrex). 2.5 ng/ml IL-7 (PromoCell, Heidelberg, Germany) and 10 U/ml IL-2 (Novartis Pharma, Nürnberg, Germany) were also added to the TCM at this step.
Generation of pMHC/anti-CD28 coated beads, T-cell stimulations and readout was performed in a highly defined in vitro system using four different pMHC molecules per stimulation condition and 8 different pMHC molecules per readout condition.
The purified co-stimulatory mouse IgG2a anti human CD28 Ab 9.3 (Jung et al., 1987) was chemically biotinylated using Sulfo-N-hydroxysuccinimidobiotin as recommended by the manufacturer (Perbio, Bonn, Germany). Beads used were 5.6 μm diameter streptavidin coated polystyrene particles (Bangs Laboratories, Illinois, USA).
800.000 beads/200 μl were coated in 96-well plates in the presence of 4×12.5 ng different biotin-pMHC, washed and 600 ng biotin anti-CD28 were added subsequently in a volume of 200 μl. Stimulations were initiated in 96-well plates by co-incubating […] CD8+ T cells with 2×10^5 washed coated beads in 200 μl TCM supplemented with 5 ng/ml IL-12 (PromoCell) for 3 days at 37° C. Half of the medium was then exchanged by fresh TCM supplemented with 80 U/ml IL-2 and incubating was continued for 4 days at 37° C. This stimulation cycle was performed for a total of three times. For the pMHC multimer readout using 8 different pMHC molecules per condition, a two-dimensional combinatorial coding approach was used as previously described (Andersen et al., 2012) with minor modifications encompassing coupling to 5 different fluorochromes. Finally, multimeric analyses were performed by staining the cells with Live/dead near IR dye (Invitrogen, Karlsruhe, Germany), CD8-FITC antibody clone SK1 (BD, Heidelberg, Germany) and fluorescent pMHC multimers. For analysis, a BD LSRII SORP cytometer equipped with appropriate lasers and filters was used. Peptide specific cells were calculated as percentage of total CD8+ cells. Evaluation of multimeric analysis was done using the FlowJo software (Tree Star, Oregon, USA). In vitro priming of specific multimer+ CD8+ lymphocytes was detected by comparing to negative control stimulations.
Exemplary flow cytometry results after TUMAP-specific multimer staining for 2 peptides of the invention are shown in FIG. 3 together with corresponding negative controls. Exemplary flow cytometry results after TUMAP-specific multimer staining for 7 peptides of the invention are shown in FIGS. 4 and 5 together with corresponding negative controls.

HLA-A*24 = experiment: MHC binding assay, UV-ligand exchange with beta2m ELISA, HLA-A*24; set-up: species or system human; settings: binding to HLA-A*24, UV-ligand exchange, β2m ELISA
From the text: Candidate peptides for T cell based therapies according to the present invention were further tested for their MHC binding capacity (affinity). The individual peptide-MHC complexes were produced by UV-ligand exchange, where a UV-sensitive peptide is cleaved upon UV-irradiation, and exchanged with the peptide of interest as analyzed. Only peptide candidates that can effectively bind and stabilize the peptide-receptive MHC molecules prevent dissociation of the MHC complexes. To determine the yield of the exchange reaction, an ELISA was performed based on the detection of the light chain (β2m) of stabilized MHC complexes. The assay was performed as generally described in Rodenko et al. (Rodenko et al., 2006).
96 well MAXISorp plates (NUNC) were coated over night with 2 ug/ml streptavidin in PBS at room temperature, washed 4× and blocked for 1 h at 37° C. in 2% BSA containing blocking buffer. […] Peptide-MHC monomers of the UV-exchange reaction were diluted 100 fold in blocking buffer. Samples were incubated for 1 h at 37° C., washed four times, incubated with 2 ug/ml HRP conjugated anti-β2m for 1 h at 37° C., washed again and detected with TMB solution that is stopped with […]. Absorption was measured at 450 nm. Candidate peptides that show a high exchange yield (preferably higher than 50%, most preferred higher than 75%) are generally preferred for a generation and production of antibodies or fragments thereof, and/or T cell receptors or fragments thereof, as they show sufficient avidity to the MHC molecules and prevent dissociation of the MHC complexes.

| Peptide exchange (MHC class I binding score, peptide exchange yield) (HLA-A*24) | Substance | in vitro immunogenicity, Wells positive [%] [1] |
| --- | --- | --- |
|  | 98 (VFPRLHNVLF; listed as Homo sapiens) [compound 98] | + (<20% = +) |
|  | 103 (NYIPVKNGKQF; listed as Homo sapiens) [compound 103] | + (<20% = +) |
|  | 105 (IYNETITDLL; listed as Homo sapiens) [compound 105] | + (<20% = +) |
|  | 106 (IYNETVRDLL; listed as Homo sapiens) [compound 106] | + (<20% = +) |
|  | 111 (VYVQILQKL; listed as Homo sapiens) [compound 111] | + (<20% = +) |
|  | 115 (RYLNKSFVL; listed as Homo sapiens) [compound 115] | + (<20% = +) |
|  | 142 (VYVDDIYVI; listed as Homo sapiens) [compound 142] | ++++ (>=70% = ++++) |
|  | 157 (DYIPASGFALF; listed as Homo sapiens) [compound 157] | + (<20% = +) |
|  | 158 (IYEETRGVLKVF; listed as Homo sapiens) [compound 158] | + (<20% = +) |
|  | 160 (RYGDGGSSF; listed as Homo sapiens) [compound 160] | + (<20% = +) |
|  | 161 (KYPDIVQQF; listed as Homo sapiens) [compound 161] | + (<20% = +) |
|  | 162 (KYTSYILAF; listed as Homo sapiens) [compound 162] | + (<20% = +) |
|  | 164 (HYVPATKVF; listed as Homo sapiens) [compound 164] | + (<20% = +) |
|  | 167 (RYGFYYVEF; listed as Homo sapiens) [compound 167] | ++++ (>=70% = ++++) |
|  | 174 (VYEKNGYIYF; listed as Homo sapiens) [compound 174] | ++++ (>=70% = ++++) |
|  | 175 (LYSPVPFTL; listed as Homo sapiens) [compound 175] | + (<20% = +) |
| ++++ (>=75% = ++++) | 220 (SYSEIKDFL; listed as Homo sapiens) [compound 220] |  |
| ++++ (>=75% = ++++) | 221 (KYIGNLDLL; listed as Homo sapiens) [compound 221] |  |
| ++++ (>=75% = ++++) | 223 (TFITQSPLL; listed as Homo sapiens) [compound 223] |  |
| ++++ (>=75% = ++++) | 231 (AFADVSVKF; listed as Homo sapiens) [compound 231] |  |
| ++++ (>=75% = ++++) | 248 (AFPTFSVQL; listed as Homo sapiens) [compound 248] |  |
| ++++ (>=75% = ++++) | 249 (RYHPTTCTI; listed as Homo sapiens) [compound 249] |  |
| ++++ (>=75% = ++++) | 252 (AFGQETNVPLNNF; listed as Homo sapiens) [compound 252] |  |
| ++++ (>=75% = ++++) | 260 (VYMNVMTRL; listed as Homo sapiens) [compound 260] |  |
| ++++ (>=75% = ++++) | 261 (GYIKLINFI; listed as Homo sapiens) [compound 261] |  |

| Peptide exchange (MHC class I binding score, peptide exchange yield) (HLA-A*24) | Substance | in vitro immunogenicity, Wells positive [%] [1] |
| --- | --- | --- |
| ++++ (>=75% = ++++) | 262 (VYSSQFETI; listed as Homo sapiens) [compound 262] |  |
| ++++ (>=75% = ++++) | 264 (LYTETRLQF; listed as Homo sapiens) [compound 264] |  |
| ++++ (>=75% = ++++) | 265 (SYLNEAFSF; listed as Homo sapiens) [compound 265] |  |
| ++++ (>=75% = ++++) | 271 (RFLMKSYSF; listed as Homo sapiens) [compound 271] |  |
| ++++ (>=75% = ++++) | 272 (RYVFPLPYL; listed as Homo sapiens) [compound 272] |  |
| ++++ (>=75% = ++++) | 274 (KQLDIANYELF; listed as Homo sapiens) [compound 274] |  |
| ++++ (>=75% = ++++) | 275 (KYGTLDVTF; listed as Homo sapiens) [compound 275] |  |
| ++++ (>=75% = ++++) | 276 (QYLDVLHAL; listed as Homo sapiens) [compound 276] |  |
| ++++ (>=75% = ++++) | 280 (TYNPNLQDKL; listed as Homo sapiens) [compound 280] |  |
| ++++ (>=75% = ++++) | 286 (SYGTILSHI; listed as Homo sapiens) [compound 286] |  |
| ++++ (>=75% = ++++) | 289 (FFHEGQYVF; listed as Homo sapiens) [compound 289] |  |
| ++++ (>=75% = ++++) | 290 (KYGDFKLLEF; listed as Homo sapiens) [compound 290] |  |
| ++++ (>=75% = ++++) | 292 (FYPQIINTF; listed as Homo sapiens) [compound 292] |  |
| ++++ (>=75% = ++++) | 293 (VYPHFSTTNLI; listed as Homo sapiens) [compound 293] |  |
| ++++ (>=75% = ++++) | 296 (SYQVIFQHF; listed as Homo sapiens) [compound 296] |  |
| ++++ (>=75% = ++++) | 297 (TYIDTRTVF; listed as Homo sapiens) [compound 297] |  |
| ++++ (>=75% = ++++) | 298 (AYKSEVVYF; listed as Homo sapiens) [compound 298] |  |
| ++++ (>=75% = ++++) | 301 (KFDDVTMLF; listed as Homo sapiens) [compound 301] |  |
| ++++ (>=75% = ++++) | 305 (NYENKQYLF; listed as Homo sapiens) [compound 305] |  |
| ++++ (>=75% = ++++) | 311 (EYLQNLNHI; listed as Homo sapiens) [compound 311] |  |
| ++++ (>=75% = ++++) | 313 (KYTHFIQSF; listed as Homo sapiens) [compound 313] |  |
| ++++ (>=75% = ++++) | 319 (KYSDVKNLI; listed as Homo sapiens) [compound 319] |  |
| ++++ (>=75% = ++++) | 357 (QFITSTNTF; listed as Homo sapiens) [compound 357] |  |
| ++++ (>=75% = ++++) | 379 (VFIAQGYTL; listed as Homo sapiens) [compound 379] |  |
